Experiment [1] relates to E. coli ATCC25922. In words: MIC by broth microdilution, wild type strain ATCC25922. Format: cell-based.
Experiment [2] relates to envA1 (D22) E. coli. Briefly: MIC by broth microdilution, isogenic envA1 mutant strain. It counts as cell-based.
Experiment [3] has as its system P. aeruginosa (ATCC27853). Particulars: P. aeruginosa (ATCC27853); summary.
Experiment [4] concerns Klebsiella pneumoniae (ATCC 43816). Format: in vivo. The method, then: Vancomycin and LpxCi-5 were dissolved in 30% HPβCD (2-hydroxypropyl-β-cyclodextrin). Test substances were each administered subcutaneously (SC) singly or in combination to test animals at 2 hours and 14 hours after bacterial inoculation then bid daily for a total of 1, 2, 3 or 7 day(s). The dosing volume was 5 mL/kg.
Groups of 5 or 10 male specific-pathogen-free CD-1 (Crl.) mice weighing 24±2 g were used. Animals were immunosuppressed by two or three intraperitoneal injections of cyclophosphamide, the first at 150 mg/kg 4 days before infection (day −4) and the second or third at 100 mg/kg 1 day before or 3 days after infection (day −1 or +3). On day 0, animals were inoculated intramuscularly (0.1 mL/thigh) into the right thigh with a specific number (1.35×10^7 CFU/mouse) of Klebsiella pneumoniae (ATCC 43816). Vehicle and test substances (singly or in combination) were each administered subcutaneously 2 hours and 14 hours after inoculation then bid for a total of 1, 2, 3 or 7 consecutive day(s). Groups at 24, 48, 72 hours and day 8 hours after treatment as the designated time of harvest, muscle of the right thigh was harvested from each of the survival test animals. An additional group with no treatment, at 2 hours after inoculation, the muscle of the right thigh was harvested and viable CFU on agar plates with or without drug were quantified by standard methods. Animals in groups designated for Day 8 harvest are 10 mice and daily tally of survivors were kept until harvest and recorded. A non-infected group was just treated with LpxCi-5 and kept out to Day 8 and then harvested. The removed muscle tissues were then homogenized in 3˜4 mL of PBS, pH 7.4, with a ceramic mortar. Homogenates of 0.1 mL were used for serial 10-fold dilutions and plated on Muller-Hinton Broth in 1.5% Bacto agar and plated in parallel with drug plates for CFU determination. The original inoculum was adjusted to 2×10^8 CFU/0.1 mL and then plated onto the 3 different drug plates of LpxCi-5 for CFU count.
The immunity of animals treated with vehicle or vancomycin alone was suppressed by two intraperitoneal injections of cyclophosphamide, the first was at 150 mg/kg 4 days before infection (day −4) and the second was at 100 mg/kg 1 day before infection (day −1). On day 0, test compound and vehicle were each administered subcutaneously at 2 and 14 hrs after animals were inoculated intramuscularly (0.1 mL/thigh) with 1.35×10^7 CFU/mouse of Klebsiella pneumoniae (ATCC 43816).
(§1) The immunity of animals treated with LpxCi-5 alone was suppressed by two or three intraperitoneal injections of cyclophosphamide, the first was at 150 mg/kg 4 days before infection (day −4); the second and the third was at 100 mg/kg 1 day before and three days after infection (day −1 and day +3). On day 0, test compound were each administered subcutaneously bid at 2 and 14 hrs after animals were inoculated intramuscularly (0.1 mL/thigh) with 1.35×10^7 CFU/mouse of Klebsiella pneumoniae (ATCC 43816) for one, two, three or seven consecutive days. At 24, 48, 72 hours or at day 8 after treatment, muscle of the right thigh was harvested from each of the test animals for CFU determination in normal and drug plates.
as §1, with “both vancomycin and the LpxC inhibitor, LpxCi-5,” for “LpxCi-5 alone”, “compounds in combination” for “compound”, “days.” for “days. At 24, 48, 72 hours or at day 8 after treatment, muscle of the right thigh was harvested from each of the test animals for CFU determination in normal and drug plates.”

≈ marks a conversion by molar mass, not a printed value.

As to `CN[C@H](CC(C)C)C(=O)N[C@H]1C(=O)N[C@@H](CC(N)=O)C(=O)N[C@H]2C(=O)N[C@H]3C(=O)N[C@H](C(=O)N[C@H](C(=O)O)c4cc(O)cc(O)c4-c4cc3ccc4O)[C@H](O)c3ccc(c(Cl)c3)Oc3cc2cc(c3O[C@@H]2O[C@H](CO)[C@@H](O)[C@H](O)[C@H]2O[C@H]2C[C@](C)(N)[C@H](O)[C@H](C)O2)Oc2ccc(cc2Cl)[C@H]1O` [Vancomycin, vancomycin], the minimal inhibitory concentration (MIC) is above 256 µg/mL in experiment [1] and 32 µg/mL (≈ 22.1 µM) in experiment [2] (Strain envA1 (D21)). The “Fold decrease in MIC (envA+/envA1)” value in experiment [2] (envA+ vs envA1 E. coli) is on record as “≧8”. In experiment [3], the “in vivo synergy with LpxC inhibitors” value was “surprising in vivo synergy”. Besides, the “Mean CFU/g thigh muscle (SEM)” value in experiment [4] (24 hr, normal plates, SC bid × 1, Vancomycin 25 mg/kg, LpxC-i 35 mg/kg) is reported as “all animals died”. For the same molecule, in experiment [4] (Vancomycin only treatment group), the “animals for which the inoculum was lethal at 24 hours” value came to 100%. Besides, in experiment [4] (vancomycin alone, SC at 2 and 14 hrs after inoculation), the “time within which all mice died” value is at most 24 h.

Source of the values: patent publication US20120283175A1, “ANTIBACTERIAL COMPOSITIONS” (Achaogen, Inc., priority 2009, published 2012).
